# Source: paper PMC9338108 (Clinical Drug Investigation, 2022)
# Values joined by “and” are separate entries in the source; they are usually repeats but may differ in a detail not shown here. Identical values can stand only once. Like-named read-outs stand apart in the source and are kept apart here.
# Assays:
# [1] = Safety assessment Study 114; format: in vivo, human; details: Study 114, N = 20
# [2] = cited from earlier work
# [3] = clinical; details: human, plasma
# [4] = Safety assessment Study 106 Part A; details: for TEAEs related to individual study drugs: N = 33
# [5] = format: in vivo, human
# [6] = Safety assessment Study 106 Part B; details: N = 24
# [7] = test system: P-glycoprotein transporter; details: ref data on file, G1 Therapeutics; cited from earlier work
# [8] = cited from earlier work; remark: listed apart in the source
# [9] = test system: cytochrome P450 3A4; details: background statement; cited from earlier work
# [10] = format: in vivo, human; remark: listed apart in the source
# [11] = format: in vivo, human; remark: listed apart in the source
# [12] = ref data on file, G1 Therapeutics; cited from earlier work
# [13] = metformin 1000 mg oral single dose alone, urine, N = 25, geometric mean (CV%)
# [14] = trilaciclib vs trilaciclib alone
# [15] = all resolved without intervention
smiles,measurement,setting,value
"CCC(C)n1ncn(-c2ccc(N3CCN(c4ccc(OCC5COC(Cn6cncn6)(c6ccc(Cl)cc6Cl)O5)cc4)CC3)cc2)c1=O (centres unmarked) [Itraconazole, itraconazole, reference compound]",TEAEs related to individual study drugs,[1],2 (10.0) n (%)
"CN(C)C(=N)N=C(N)N [Metformin, metformin]",AUC0–24 as share of AUC0–inf,[2],approximately 95%
same,Vd/F,[3]; oral,556 L
same,AUC(0-inf),"[3]; po, 1000 mg",11900 ng·h/mL
same,Cmax,"[3]; po, 1000 mg",1650 ng/mL
same,Tmax,"metformin 1000 mg oral single dose alone, N = 25, median (range)",2.50 (1.50–5.00) h
same,Ae (total amount of drug excreted in urine),[13],342 (25.1) mg
same,Fe (percentage of drug excreted in urine),[13],34.2 (25.1) %
same,geometric mean AUC0–inf higher after coadministration with trilaciclib,metformin vs metformin alone,64.6%
same,geometric mean AUC0–last higher after coadministration with trilaciclib,metformin vs metformin alone,66.0%
same,geometric mean Cmax higher after coadministration with trilaciclib,metformin vs metformin alone,79.8%
same,TEAEs related to individual study drugs,[4],7 (21.2) n (%)
"Cc1ncc2n1-c1ccc(Cl)cc1C(c1ccccc1F)=NC2 [Midazolam, midazolam]",Vd/F,"[5]; human, plasma, oral",658 L
same,AUC(0-inf),"[5]; human, plasma, po, 5 mg",64.6 ng·h/mL
same,AUC(0-t),"[5]; human, plasma, po, 5 mg",62.1 ng·h/mL
same,Cmax,"[5]; human, plasma, po, 5 mg",24.4 ng/mL
same,Vd/F,"[5]; human, plasma, po, 5 mg",635 L
same,half-life,"[5]; human, plasma, po, 5 mg",341 min
same,CL/F,"[5]; midazolam 5 mg oral single dose alone, N = 25, geometric mean (CV%)",77.4 (34.2) L/h
same,Tmax,"[5]; midazolam 5 mg oral single dose alone, N = 25, median (range)",0.50 (0.25–1.50) h
same,Cmax decrease after multiple IV doses of trilaciclib,[5]; midazolam vs midazolam alone,16.6%
same,geometric mean AUC0–inf higher after coadministration with trilaciclib,[5]; midazolam vs midazolam alone,4.6%
same,geometric mean AUC0–last higher after coadministration with trilaciclib,[5]; midazolam vs midazolam alone,4.0%
same,TEAEs related to individual study drugs,[4],16 (48.5) n (%)
"CO[C@H]1/C=C/O[C@@]2(C)Oc3c(C)c(O)c4c(O)c(c(/C=N/N5CCN(C)CC5)c(O)c4c3C2=O)NC(=O)/C(C)=C\C=C\[C@H](C)[C@H](O)[C@@H](C)[C@@H](O)[C@@H](C)[C@H](OC(C)=O)[C@@H]1C [Rifampin, rifampin, reference compound]",TEAEs related to individual study drugs,[6],19 (79.2) n (%)
"CN1CCN(c2ccc(Nc3ncc4cc5n(c4n3)C3(CCCCC3)CNC5=O)nc2)CC1 [Trilaciclib, trilaciclib]",TEAEs related to individual study drugs,[1],9 (45.0) n (%)
same,substrate of the P-glycoprotein transporter,[7],substrate of the P-glycoprotein transporter
same,TEAEs related to individual study drugs,[6],20 (83.3) n (%)
same,clearance,[8],158 L/h
same,mean terminal half-life (t1/2),[8],approximately 14 h
same,parent molecule recovered in the excreta,[8],less than 10%
same,time-dependent inhibitor of cytochrome P450 3A4,[9],time-dependent inhibitor of cytochrome P450 3A4
same,Tmax,"[10]; human, plasma, intravenous",28.8 min
same,AUC(0-inf),"[10]; human, plasma, iv, 200 mg/m2",3120 ng·h/mL
same,AUC(0-t),"[10]; human, plasma, iv, 200 mg/m2",3070 ng·h/mL
same,Cmax,"[10]; human, plasma, iv, 200 mg/m2",1770 ng/mL
same,Tmax,"[10]; human, plasma, iv, 200 mg/m2",24 min
same,clearance,"[10]; human, plasma, iv, 200 mg/m2",2120 mL/min
same,half-life,"[10]; human, plasma, iv, 200 mg/m2",547 min
same,geometric mean AUC0–inf decrease with itraconazole,[10]; [14],14.0% and 13.6%
same,geometric mean AUC0–last decrease with itraconazole,[10]; [14],13.3%
same,geometric mean Cmax decrease with itraconazole,[10]; [14],28.0%
same,Tmax,"[11]; human, plasma, intravenous",30 min
same,clearance,"[11]; human, plasma, intravenous",3520 mL/min
same,AUC(0-inf),"[11]; human, plasma, iv, 240 mg/m2",2700 ng·h/mL
same,AUC(0-t),"[11]; human, plasma, iv, 240 mg/m2",2670 ng·h/mL
same,Cmax,"[11]; human, plasma, iv, 240 mg/m2",1600 ng/mL
same,Tmax,"[11]; human, plasma, iv, 240 mg/m2",25.2 min
same,clearance,"[11]; human, plasma, iv, 240 mg/m2",2920 mL/min
same,half-life,"[11]; human, plasma, iv, 240 mg/m2",606 min
same,geometric mean AUC0–inf decrease with rifampin,[11]; [14],17.3% and 17%
same,geometric mean AUC0–last decrease with rifampin,[11]; [14],17.3%
same,geometric mean Cmax reduction with rifampin,[11]; [14],19.9%
same,subjects reporting TEAEs of thrombophlebitis,[4]; 25 subjects enrolled after adjustment of drug administration,24%
same,TEAEs related to individual study drugs,[4],33 (100) n (%)
same,subjects with Grade 3 TEAEs of neutropenia related to trilaciclib,[4]; [15],5 n
same,subjects with Grade 4 TEAEs of neutropenia related to trilaciclib,[4]; [15],1 n
same,subjects discontinued because of phlebitis in the arm related to trilaciclib administration,[4]; initial eight subjects (Site 1),eight
same,unbound fraction in plasma,[12],approximately 30%
